Data published in patent US20210255193A1, “LYSINE REACTIVE PROBES AND USES THEREOF” (The Scripps Research Institute, priority 2017, published 2021).

Tests used:
Test in all cases: competitive isoTOP-ABPP
Assay type in all cases: binding
[1] = biological target: T1, IMPDH1 Inosine-5-monophosphate dehydrogenase 1 (Homo sapiens, UniProt P20839); settings: for isoTOP-ABPP ratio (R) at liganded lysine P20839_K208 / isoTOP-ABPP reactivity ratio at lysine P20839_K208: 50 uM, in vitro; for isoTOP-ABPP ratio (R) at liganded lysine P20839_K208: sol, 231; for isoTOP-ABPP reactivity ratio at lysine P20839_K208: 231 sol
T1 construct: isoTOP-ABPP experiments performed in cell lysates (in vitro); endogenous in cells; host or cells: soluble proteome of human cancer cell lines (MDA-MB-231; Ramos and Jurkat also prepared)
Outline: (§1)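 Fragments at 50 μM (activated esters) or 100 μM (guanidinylating agents) were incubated with 0.5 ml lysate before probe labeling. After 0.1 mM STP-alkyne for 1 h, samples were clicked to isotopically distinct TEV tags, and R taken as DMSO-over-compound MS1 peak-area ratio.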

[2] = biological target: T2, ETFA Electron transfer flavoprotein subunit alpha, mitochondrial (Homo sapiens, UniProt P13804); settings: for isoTOP-ABPP ratio (R) at liganded lysine P13804_K139 / R value (DMSO/fragment) for probe 1 labeling / isoTOP-ABPP reactivity ratio at lysine P13804_K139: 50 uM, in vitro; for isoTOP-ABPP ratio (R) at liganded lysine P13804_K139: sol, 231; for R value (DMSO/fragment) for probe 1 labeling: P13804_K139; for R value (DMSO/fragment) for probe 1 labeling / isoTOP-ABPP reactivity ratio at lysine P13804_K139: 231 sol
T2 construct: isoTOP-ABPP experiments performed in cell lysates (in vitro); endogenous in cells; host or cells: soluble proteome of human cancer cell lines (MDA-MB-231; Ramos and Jurkat also prepared)
T2 sequence (P13804 20-333): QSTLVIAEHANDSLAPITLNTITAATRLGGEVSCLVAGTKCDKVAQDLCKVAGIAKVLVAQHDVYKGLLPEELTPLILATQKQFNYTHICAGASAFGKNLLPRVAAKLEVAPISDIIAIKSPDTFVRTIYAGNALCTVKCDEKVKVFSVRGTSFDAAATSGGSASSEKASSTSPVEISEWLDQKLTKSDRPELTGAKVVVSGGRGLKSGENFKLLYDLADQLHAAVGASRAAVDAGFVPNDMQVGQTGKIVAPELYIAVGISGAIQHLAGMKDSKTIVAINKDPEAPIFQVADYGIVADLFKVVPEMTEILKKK
T2 sequence (P38117 2-255 partner limits assumed): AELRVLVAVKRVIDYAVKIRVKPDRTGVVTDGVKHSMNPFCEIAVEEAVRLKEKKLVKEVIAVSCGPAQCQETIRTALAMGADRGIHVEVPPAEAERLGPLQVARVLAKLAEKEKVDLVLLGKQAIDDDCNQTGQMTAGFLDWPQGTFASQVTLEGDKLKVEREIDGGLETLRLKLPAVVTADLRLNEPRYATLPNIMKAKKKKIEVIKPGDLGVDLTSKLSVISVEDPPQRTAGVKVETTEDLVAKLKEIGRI
Outline: as §1

[3] = biological target: T3, SMPD1 Sphingomyelin phosphodiesterase (Homo sapiens, UniProt P17405); settings: for isoTOP-ABPP ratio (R) at liganded lysine P17405_K118: sol, 231
T3 construct: isoTOP-ABPP experiments performed in cell lysates (in vitro); endogenous in cells; host or cells: soluble proteome of human cancer cell lines (MDA-MB-231; Ramos and Jurkat also prepared)
T3 sequence (P17405 47-631): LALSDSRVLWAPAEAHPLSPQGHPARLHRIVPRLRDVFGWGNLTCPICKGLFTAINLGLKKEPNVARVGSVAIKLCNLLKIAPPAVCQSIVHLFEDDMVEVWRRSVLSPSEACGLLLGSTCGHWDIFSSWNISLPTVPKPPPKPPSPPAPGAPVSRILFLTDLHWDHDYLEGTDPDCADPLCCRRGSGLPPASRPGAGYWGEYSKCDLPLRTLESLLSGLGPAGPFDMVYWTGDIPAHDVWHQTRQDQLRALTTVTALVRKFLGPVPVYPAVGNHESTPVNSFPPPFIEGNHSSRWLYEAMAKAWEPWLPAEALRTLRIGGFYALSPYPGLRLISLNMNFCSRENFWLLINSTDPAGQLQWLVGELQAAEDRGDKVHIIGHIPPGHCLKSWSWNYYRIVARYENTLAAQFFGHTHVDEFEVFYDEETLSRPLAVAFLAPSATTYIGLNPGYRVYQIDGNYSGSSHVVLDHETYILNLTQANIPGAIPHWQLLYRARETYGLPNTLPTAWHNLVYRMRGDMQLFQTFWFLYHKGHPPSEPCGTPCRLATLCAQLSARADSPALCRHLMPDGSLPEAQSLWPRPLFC
Outline: as §1

T1 sequence (P20839 whole entry): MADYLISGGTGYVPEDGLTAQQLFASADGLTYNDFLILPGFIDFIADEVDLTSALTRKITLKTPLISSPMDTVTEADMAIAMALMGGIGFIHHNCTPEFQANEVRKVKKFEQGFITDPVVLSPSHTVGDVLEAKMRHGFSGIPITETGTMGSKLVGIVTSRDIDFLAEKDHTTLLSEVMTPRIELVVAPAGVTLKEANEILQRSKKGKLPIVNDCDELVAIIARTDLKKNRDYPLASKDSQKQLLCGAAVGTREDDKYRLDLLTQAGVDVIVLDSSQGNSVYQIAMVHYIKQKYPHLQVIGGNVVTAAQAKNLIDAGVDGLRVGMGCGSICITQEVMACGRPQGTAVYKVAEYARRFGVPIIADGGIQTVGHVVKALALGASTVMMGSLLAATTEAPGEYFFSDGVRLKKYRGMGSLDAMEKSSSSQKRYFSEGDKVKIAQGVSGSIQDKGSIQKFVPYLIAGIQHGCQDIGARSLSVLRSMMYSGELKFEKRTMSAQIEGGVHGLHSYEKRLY

## O=C(CCc1coc2cc(F)ccc2c1=O)Oc1ccc([N+](=O)[O-])cc1[N+](=O)[O-] [fragment 36, 2,4-Dinitrophenyl 3-(7-fluoro-4-oxo-4H-chromen-3-yl)propanoate]
[1]
  isoTOP-ABPP ratio (R) at liganded lysine P20839_K208: 1.6
[2]
  isoTOP-ABPP ratio (R) at liganded lysine P13804_K139: 0.7

## O=C(Oc1ccc([N+](=O)[O-])cc1[N+](=O)[O-])C(c1ccccc1)(c1ccccc1)c1ccccc1 [fragment 42, 2,4-Dinitrophenyl 2,2,2-triphenylacetate]
[1]
  isoTOP-ABPP ratio (R) at liganded lysine P20839_K208: 1.2

## O=C(Oc1ccc([N+](=O)[O-])cc1[N+](=O)[O-])c1ccccc1Nc1cccc(C(F)(F)F)c1 [fragment 40, 2,4-Dinitrophenyl 2-((3-(trifluoromethyl)phenyl)amino)benzoate]
[2]
  isoTOP-ABPP ratio (R) at liganded lysine P13804_K139: 0.9

## Cn1cc(CC(=O)Oc2c(F)c(F)c(F)c(F)c2F)c2ccccc21 [fragment 22, Pentafluorophenyl 2-(1-methyl-1H-indol-3-yl)acetate]
[2]
  R value (DMSO/fragment) for probe 1 labeling: 0.9

## O=C(Oc1c(F)c(F)c(C(F)(F)F)c(F)c1F)c1cc(C(F)(F)F)cc(C(F)(F)F)c1 [fragment 47, 2,3,5,6-Tetrafluoro-4-(trifluoromethyl)phenyl 3,5-bis(trifluoromethyl)benzoate]
[1]; 50 uM_231_sol_in vitro
  isoTOP-ABPP ratio, lysine P20839_K208: 1.2
[2]; 50 uM_231_sol_in vitro
  isoTOP-ABPP ratio, lysine P13804_K139: 1.1

## O=C(CC12CC3CC(CC(C3)C1)C2)Oc1ccc([N+](=O)[O-])cc1[N+](=O)[O-] [fragment 38, 2,4-Dinitrophenyl 2-(adamantan-1-yl)acetate]
[1]
  isoTOP-ABPP ratio (R) at liganded lysine P20839_K208: 1.2
[3]; 50 uM, in vitro
  isoTOP-ABPP ratio (R) at liganded lysine P17405_K118: 1.2

## O=C(ON1C(=O)CCC1=O)c1cc(C(F)(F)F)cc(C(F)(F)F)c1 [fragment 46, 3,5-Bis(trifluoromethyl)benzoic acid NHS ester]
[3]; 50 uM_231_sol_in vitro
  isoTOP-ABPP ratio, lysine P17405_K118: 0.7
[2]; 50 uM_231_sol_in vitro
  isoTOP-ABPP ratio, lysine P13804_K139: 0.9

## NC(=O)c1cc(C(F)(F)F)cc(C(F)(F)F)c1 [fragment 51, reference compound]
[3]; 50 uM_231_sol_in vitro
  isoTOP-ABPP ratio, lysine P17405_K118: 0.9
[2]; 50 uM_231_sol_in vitro
  isoTOP-ABPP ratio, lysine P13804_K139: 1.0

## COc1cc(CCC(=O)Oc2ccc([N+](=O)[O-])cc2[N+](=O)[O-])cc(OC)c1OC [fragment 33, 2,4-Dinitrophenyl 3-(3,4,5-trimethoxyphenyl)propanoate]
[1]
  isoTOP-ABPP reactivity ratio at lysine P20839_K208: 1.2
[2]
  isoTOP-ABPP reactivity ratio at lysine P13804_K139: 0.7

## O=C(Oc1ccc([N+](=O)[O-])cc1[N+](=O)[O-])C(c1ccccc1)c1ccccc1 [fragment 30, 2,4-Dinitrophenyl 2,2-diphenylacetate]
[1]
  isoTOP-ABPP reactivity ratio at lysine P20839_K208: 1.6
[2]
  isoTOP-ABPP reactivity ratio at lysine P13804_K139: 20.0

## O=C(Oc1ccc([N+](=O)[O-])cc1[N+](=O)[O-])c1cc(C(F)(F)F)cc(C(F)(F)F)c1 [fragment 31, 2,4-Dinitrophenyl 3,5-bis(trifluoromethyl)benzoate]
[2]
  isoTOP-ABPP reactivity ratio at lysine P13804_K139: 0.8

## O=C(CCc1cn(-c2ccccc2)nc1-c1ccccc1)Oc1ccc([N+](=O)[O-])cc1[N+](=O)[O-] [fragment 29, 2,4-Dinitrophenyl 3-(1,3-diphenyl-1H-pyrazol-4-yl)propanoate]
[1]
  isoTOP-ABPP reactivity ratio at lysine P20839_K208: 1.3
[3]; 50 uM, 231 sol, in vitro
  isoTOP-ABPP reactivity ratio at lysine P17405_K118: 2.5
[2]
  isoTOP-ABPP reactivity ratio at lysine P13804_K139: 0.8

## CC(=O)Oc1ccc([N+](=O)[O-])cc1[N+](=O)[O-] [fragment 43, 2,4-Dinitrophenyl acetate]
[1]
  isoTOP-ABPP ratio (R) at liganded lysine P20839_K208: 1.3

## O=C(Oc1c(F)c(F)cc(F)c1F)c1cc(C(F)(F)F)cc(C(F)(F)F)c1 [fragment 48, 2,3,5,6-Tetrafluorophenyl 3,5-bis(trifluoromethyl)benzoate]
[2]; 50 uM_231_sol_in vitro
  isoTOP-ABPP ratio, lysine P13804_K139: 0.9

## CC(C)(C)OC(=O)N=C(NC(=O)OC(C)(C)C)n1cccn1 [fragment 50, reference compound]
[1]; 100 uM_231_sol_in vitro
  isoTOP-ABPP ratio, lysine P20839_K208: 20.0
[3]; 100 uM_231_sol_in vitro
  isoTOP-ABPP ratio, lysine P17405_K118: 1.3
[2]; 100 uM_231_sol_in vitro
  isoTOP-ABPP ratio, lysine P13804_K139: 1.1

## N#Cc1ccc(C(=O)Oc2ccc([N+](=O)[O-])cc2[N+](=O)[O-])cc1 [fragment 44, 2,4-Dinitrophenyl 4-cyanobenzoate]
[3]; 50 uM_231_sol_in vitro
  isoTOP-ABPP ratio, lysine P17405_K118: 0.8
[2]; 50 uM_231_sol_in vitro
  isoTOP-ABPP ratio, lysine P13804_K139: 0.9

## O=C(Oc1ccc([N+](=O)[O-])cc1[N+](=O)[O-])c1ccc(-c2ccccc2)cc1 [fragment 37, 2,4-Dinitrophenyl [1,1′-biphenyl]-4-carboxylate]
[1]
  isoTOP-ABPP ratio (R) at liganded lysine P20839_K208: 1.4
[2]
  isoTOP-ABPP ratio (R) at liganded lysine P13804_K139: 0.9

## O=C(CCc1ccc2c(c1)OCO2)Oc1ccc([N+](=O)[O-])cc1[N+](=O)[O-] [fragment 45, 2,4-Dinitrophenyl 3-(benzo[d][1,3]dioxol-5-yl)propanoate]
[1]; 50 uM_231_sol_in vitro
  isoTOP-ABPP ratio, lysine P20839_K208: 1.5
[3]; 50 uM_231_sol_in vitro
  isoTOP-ABPP ratio, lysine P17405_K118: 1.1
[2]; 50 uM_231_sol_in vitro
  isoTOP-ABPP ratio, lysine P13804_K139: 1.0

## COC(=O)NC(=NC(=O)OCC1c2ccccc2-c2ccccc21)n1cccn1 [fragment 49, N-Methoxycarbonyl-N′-9-fluorenylmethoxycarbonyl-pyrazole-1-carboxamidine]
[1]; 100 uM_231_sol_in vitro
  isoTOP-ABPP ratio, lysine P20839_K208: 4.4
[3]; 100 uM_231_sol_in vitro
  isoTOP-ABPP ratio, lysine P17405_K118: 8.4

## O=C(Oc1c(F)c(F)c(F)c(F)c1F)C(c1ccccc1)c1ccccc1 [fragment 20, Pentafluorophenyl 2,2-diphenylacetate]
[3]; P17405_K118, 50 uM, 231 sol, in vitro
  R value (DMSO/fragment) for probe 1 labeling: 1.4
[2]
  R value (DMSO/fragment) for probe 1 labeling: 0.9

## O=C(Oc1ccc([N+](=O)[O-])cc1[N+](=O)[O-])c1ccc2ccccc2n1 [fragment 35, 2,4-Dinitrophenyl quinoline-2-carboxylate]
[3]; 50 uM, in vitro
  isoTOP-ABPP ratio (R) at liganded lysine P17405_K118: 1.4
[2]
  isoTOP-ABPP ratio (R) at liganded lysine P13804_K139: 0.9

## CC(C)(C)OC(=O)NCCCC(=O)Oc1ccc([N+](=O)[O-])cc1[N+](=O)[O-] [fragment 41, 2,4-Dinitrophenyl 4-((tert-butoxycarbonyl)amino)butanoate]
[1]
  isoTOP-ABPP ratio (R) at liganded lysine P20839_K208: 1.2
[3]; 50 uM, in vitro
  isoTOP-ABPP ratio (R) at liganded lysine P17405_K118: 1.5
[2]
  isoTOP-ABPP ratio (R) at liganded lysine P13804_K139: 20.0

## O=C(Oc1c(F)c(F)c(F)c(F)c1F)C1CCN(C(=O)OCc2ccccc2)CC1 [fragment 24, 1-Benzyl 4-(pentafluorophenyl) piperidine-1,4-dicarboxylate]
[2]
  isoTOP-ABPP reactivity ratio at lysine P13804_K139: 1.1

## Cn1cc(CC(=O)Oc2ccc([N+](=O)[O-])cc2[N+](=O)[O-])c2ccccc21 [fragment 32, 2,4-Dinitrophenyl 2-(1-methyl-1H-indol-3-yl)acetate]
[2]
  isoTOP-ABPP reactivity ratio at lysine P13804_K139: 20.0

## COc1cc(CCC(=O)Oc2c(F)c(F)c(F)c(F)c2F)cc(OC)c1OC [fragment 23, Pentafluorophenyl 3-(3,4,5-trimethoxyphenyl)propanoate]
[2]
  R value (DMSO/fragment) for probe 1 labeling: 1.4

## O=C(Oc1ccc([N+](=O)[O-])cc1[N+](=O)[O-])c1ccc(Oc2ccccc2)cc1 [fragment 39, 2,4-Dinitrophenyl 4-phenoxybenzoate]
[3]; 50 uM, in vitro
  isoTOP-ABPP ratio (R) at liganded lysine P17405_K118: 0.8
[2]
  isoTOP-ABPP ratio (R) at liganded lysine P13804_K139: 0.6
